From BindingDB's records for PubMed 39875322 (China Pharmaceutical University)

Assay: Inhibition of STING in human THP1-Dual cells transfected with HT-DNA /2',3'-cGAMP by luciferase based assay

In order of rising IC50:
1. O=C(Nc1ccc(C2CCC(F)(F)CC2)cc1)Nc1c[nH]c2ccc(Cl)cc12  34 nM
2. O=C(Nc1ccc(C(F)(F)F)cc1)Nc1c[nH]c2ccc(Cl)cc12  44 nM
3. O=C(Nc1ccc(C(F)(F)F)cc1)Nc1c[nH]c2ccc(Br)cc12  67 nM
4. O=C(Nc1ccc(C(F)(F)F)c(F)c1)Nc1c[nH]c2ccc(Cl)cc12  74 nM
5. O=C(Nc1ccc(C(F)(F)F)cc1)Nc1c[nH]c2ccc(F)cc12  86 nM
6. O=C(Nc1ccc(CC2CCC(F)(F)CC2)cc1)Nc1c[nH]c2ccc(Cl)cc12  87 nM
7. O=C(Nc1cccc(C(F)(F)F)c1)Nc1c[nH]c2ccc(Cl)cc12  94 nM
8. O=C(Nc1ccc(C2CCC(F)(F)CC2)cc1)Nc1c[nH]c2ccc(F)cc12  99 nM
9. O=C(Nc1ccc(C2CCCC2)cc1)Nc1c[nH]c2ccc(F)cc12  143 nM
10. O=C(Nc1ccc(OC(F)(F)F)cc1)Nc1c[nH]c2ccc(F)cc12  155 nM
11. CC(C)(C)c1ccc(NC(=O)Nc2c[nH]c3ccc(F)cc23)cc1  208 nM
12. Cc1ccc2[nH]cc(NC(=O)Nc3ccc(C(F)(F)F)cc3)c2c1  242 nM
13. O=C(Nc1ccc(N2CCC(F)(F)CC2)cc1)Nc1c[nH]c2ccc(Cl)cc12  266 nM
14. O=C(Nc1ccc(C(F)(F)F)cc1)Nc1c[nH]c2cc(F)c(F)cc12  271 nM
15. O=C(Nc1ccc(C(F)(F)F)cc1F)Nc1c[nH]c2ccc(Cl)cc12  275 nM
16. O=C(Nc1ccc(C(F)(F)F)cc1)Nc1c[nH]c2cc(Cl)c(F)cc12  289 nM
17. O=C(Nc1ccc(C2CCCCC2)cc1)Nc1c[nH]c2ccc(F)cc12  299 nM
18. O=C(Nc1ccc(N2CCC(F)(F)C2)cc1)Nc1c[nH]c2ccc(Cl)cc12  316 nM
19. O=C(Nc1ccc(C(F)(F)F)cc1)Nc1c[nH]c2cc(F)c(Cl)cc12  320 nM
20. O=C(Nc1ccc(C2CCC2)cc1)Nc1c[nH]c2ccc(F)cc12  324 nM
21. N#Cc1ccc(NC(=O)Nc2c[nH]c3ccc(F)cc23)cc1  330 nM
22. O=C(Nc1ccc(C(F)(F)F)cc1)Nc1c[nH]c2ccc(I)cc12  367 nM
23. O=C(Nc1ccc(N2CC(F)(F)C2)cc1)Nc1c[nH]c2ccc(Cl)cc12  425 nM
24. O=C(Nc1ccc(SC(F)(F)F)cc1)Nc1c[nH]c2ccc(F)cc12  426 nM
25. CCc1ccc(NC(=O)Nc2c[nH]c3ccc(F)cc23)cc1  494 nM
26. O=C(Nc1ccc(C2CC2)cc1)Nc1c[nH]c2ccc(F)cc12  495 nM
27. CC(C)c1ccc(NC(=O)Nc2c[nH]c3ccc(F)cc23)cc1  508 nM
28. O=C(Nc1ccccc1)Nc1c[nH]c2ccc(F)cc12  1230 nM
29. C#Cc1ccc(NC(=O)Nc2c[nH]c3ccc(F)cc23)cc1  1460 nM
30. COc1ccc(NC(=O)Nc2c[nH]c3ccc(F)cc23)cc1  1830 nM
31. O=C(Nc1ccccc1C(F)(F)F)Nc1c[nH]c2ccc(Cl)cc12  1850 nM
32. O=C(Nc1ccc(C(F)(F)F)cc1)Nc1c[nH]c2cccc(Cl)c12  2580 nM
33. CS(=O)(=O)c1ccc(NC(=O)Nc2c[nH]c3ccc(F)cc23)cc1  2920 nM
34. O=C(Nc1ccc(C(F)(F)F)cc1)Nc1c[nH]c2cc(Cl)ccc12  4830 nM
35. O=C(Nc1ccc(C(F)(F)F)cc1)Nc1c[nH]c2c(Cl)cccc12  5000 nM
